Columns and labels:
[1] = Cytotoxicity against human HOP62 cells assessed as growth inhibition after 48 hrs by SRB assay; type: functional; settings: HOP-62, 48 h
MCF7 [2] = experiment: Antiproliferative activity against human MCF7 cells after 72 hrs by MTT assay; settings: mcf7
M14 = experiment: Cytotoxicity against human M14 cells assessed as growth inhibition after 48 hrs by SRB assay; type: functional; settings: M14, 48 h; for CC50: read-out: LC50 (the source's name)
[3] = Cytotoxicity against human RXF393 cells assessed as growth inhibition after 48 hrs by SRB assay; type: functional; settings: RXF 393, 48 h; for CC50: read-out: LC50 (the source's name)
[4] = Cytotoxicity against human NCI-ADR-RES cells assessed as growth inhibition after 48 hrs by SRB assay; type: functional; settings: for CC50: read-out: LC50 (the source's name)
A498 = experiment: Cytotoxicity against human A498 cells assessed as growth inhibition after 48 hrs by SRB assay; type: functional; settings: A498, 48 h
EKVX = experiment: Cytotoxicity against human EKVX cells assessed as growth inhibition after 48 hrs by SRB assay; type: functional
[5] = Cytotoxicity against human SNB75 cells assessed as growth inhibition after 48 hrs by SRB assay; type: functional; settings: SNB-75, 48 h
[6] = Cytotoxicity against human SF268 cells assessed as growth inhibition after 48 hrs by SRB assay; type: functional; settings: SF-268, 48 h
SK-MEL-2 = experiment: Cytotoxicity against human SK-MEL-2 cells assessed as growth inhibition after 48 hrs by SRB assay; type: functional; settings: SK-MEL-2, 48 h; for CC50: read-out: LC50 (the source's name)
[7] = Cytotoxicity against human HCT15 cells assessed as growth inhibition after 48 hrs by SRB assay; type: functional; settings: HCT-15, 48 h
SR = experiment: Cytotoxicity against human SR cells assessed as growth inhibition after 48 hrs by SRB assay; type: functional; settings: for CC50: read-out: LC50 (the source's name)
[8] = Cytotoxicity against human SKOV3 cells assessed as growth inhibition after 48 hrs by SRB assay; type: functional; settings: SK-OV-3, 48 h; for CC50: read-out: LC50 (the source's name)
[9] = Cytotoxicity against human IGROV1 cells assessed as growth inhibition after 48 hrs by SRB assay; type: functional; settings: IGROV-1, 48 h; for CC50: read-out: LC50 (the source's name)
U-251 = experiment: Cytotoxicity against human U251 cells assessed as growth inhibition after 48 hrs by SRB assay; type: functional; settings: U-251, 48 h
[10] = Cytotoxicity against human SW620 cells assessed as growth inhibition after 48 hrs by SRB assay; type: functional; settings: SW-620, 48 h
MCF7 [11] = experiment: Cytotoxicity against human MCF7 cells assessed as growth inhibition after 48 hrs by SRB assay; type: functional; settings: MCF7, 48 h; for CC50: read-out: LC50 (the source's name)
[12] = Cytotoxicity against human SNB19 cells assessed as growth inhibition after 48 hrs by SRB assay; type: functional; settings: SNB-19, 48 h; for CC50: read-out: LC50 (the source's name)
[13] = Cytotoxicity against human Hs 578T cells assessed as growth inhibition after 48 hrs by SRB assay; type: functional; settings: for CC50: read-out: LC50 (the source's name)
CCRF-CEM = experiment: Cytotoxicity against human CCRF-CEM cells assessed as growth inhibition after 48 hrs by SRB assay; type: functional; settings: for CC50: read-out: LC50 (the source's name)
NCI-H522 = experiment: Cytotoxicity against human NCI-H522 cells assessed as growth inhibition after 48 hrs by SRB assay; type: functional; settings: NCI-H522, 48 h; for CC50: read-out: LC50 (the source's name)
786-0 = experiment: Cytotoxicity against human 786-0 cells assessed as growth inhibition after 48 hrs by SRB assay; type: functional; settings: 786-0, 48 h; for CC50: read-out: LC50 (the source's name)
[14] = Cytotoxicity against human UACC257 cells assessed as growth inhibition after 48 hrs by SRB assay; type: functional; settings: UACC-257, 48 h
[15] = Cytotoxicity against human BT549 cells assessed as growth inhibition after 48 hrs by SRB assay; type: functional; settings: BT-549, 48 h; for CC50: read-out: LC50 (the source's name)
[16] = Cytotoxicity against human Caki1 cells assessed as growth inhibition after 48 hrs by SRB assay; type: functional; settings: CAKI-1, 48 h
NCI-H226 = experiment: Cytotoxicity against human NCI-H226 cells assessed as growth inhibition after 48 hrs by SRB assay; type: functional; settings: NCI-H226, 48 h
Malme-3M = experiment: Cytotoxicity against human MALME-3M cells assessed as growth inhibition after 48 hrs by SRB assay; type: functional; settings: for CC50: read-out: LC50 (the source's name)
MDA-MB-468 = experiment: Cytotoxicity against human MDA-MB-468 cells assessed as growth inhibition after 48 hrs by SRB assay; type: functional; settings: MDA-MB-468, 48 h; for CC50: read-out: LC50 (the source's name)
[17] = Cytotoxicity against human LOXIMVI cells assessed as growth inhibition after 48 hrs by SRB assay; type: functional; settings: LOX IMVI
[18] = Cytotoxicity against human UACC62 cells assessed as growth inhibition after 48 hrs by SRB assay; type: functional; settings: UACC-62, 48 h; for CC50: read-out: LC50 (the source's name)

Structure (SMILES): C/C(=C(/c1ccc(O)cc1)c1ccc(OCCN2CCCC2)cc1)c1ccccc1
- GI50 [1]: 2.1 µM
- LC50 (concentration giving 50% net cell kill) [1]: 9.84 µM
- TGI [1]: 4.54 µM
- IC50 (MCF7 [2]): < 1 µM
- GI50 (M14): 1.88 µM
- TGI (M14): 4.08 µM
- CC50 (M14): 8.86 µM
- GI50 [3]: 2 µM
- TGI [3]: 5.05 µM
- CC50 [3]: 19.8 µM
- GI50 [4]: 4.17 µM
- TGI [4]: 18.3 µM
- CC50 [4]: 61.5 µM
- GI50 (A498): 1.67 µM
- LC50 (A498): 38.5 µM
- TGI (A498): 8.49 µM
- GI50 (EKVX): 2.46 µM
- LC50 (EKVX): 33.9 µM
- TGI (EKVX): 11.5 µM
- GI50 [5]: 3.07 µM
- LC50 [5]: 42.2 µM
- TGI [5]: 15.7 µM
- GI50 [6]: 5.58 µM
- LC50 [6]: 55.2 µM
- TGI [6]: 20.7 µM
- GI50 (SK-MEL-2): 1.97 µM
- TGI (SK-MEL-2): 3.95 µM
- CC50 (SK-MEL-2): 7.94 µM
- GI50 [7]: 1.81 µM
- LC50 (concentration killing 50% of cells) [7]: 14.4 µM
- TGI [7]: 4.64 µM
- GI50 (SR): 1.93 µM
- TGI (SR): 5.75 µM
- CC50 (SR): 40.6 µM
- GI50 [8]: 3.25 µM
- TGI [8]: 13 µM
- CC50 [8]: 36.9 µM
- GI50 [9]: 6.8 µM
- TGI [9]: 27 µM
- CC50 [9]: 90.7 µM
- GI50 (U-251): 2.24 µM
- LC50 (50% lethal concentration) (U-251): 18 µM
- TGI (U-251): 5.49 µM
- GI50 [10]: 2.28 µM
- LC50 [10]: 15.3 µM
- TGI [10]: 5.16 µM
- GI50 (MCF7 [11]): < 0.01 µM
- TGI (MCF7 [11]): 2.72 µM
- CC50 (MCF7 [11]): 14 µM
- GI50 [12]: 2.95 µM
- TGI [12]: 8.1 µM
- CC50 [12]: 42.2 µM
- GI50 [13]: 2.96 µM
- TGI [13]: 9.9 µM
- CC50 [13]: > 100 µM
- GI50 (CCRF-CEM): 3.2 µM
- TGI (CCRF-CEM): 9.85 µM
- CC50 (CCRF-CEM): 50 µM
- GI50 (NCI-H522): 2.1 µM
- TGI (NCI-H522): 5.09 µM
- CC50 (NCI-H522): 18.6 µM
- GI50 (786-0): 1.86 µM
- TGI (786-0): 4.09 µM
- CC50 (786-0): 9 µM
- GI50 [14]: 2.03 µM
- LC50 [14]: 7.61 µM
- TGI [14]: 3.93 µM
- GI50 [15]: 4.2 µM
- TGI [15]: 15.7 µM
- CC50 [15]: 39.6 µM
- GI50 [16]: 3.02 µM
- LC50 [16]: 37.3 µM
- TGI [16]: 13.9 µM
- GI50 (NCI-H226): 11.3 µM
- LC50 (50% lethal concentration) (NCI-H226): 79 µM
- TGI (NCI-H226): 29.8 µM
- GI50 (Malme-3M): 1.7 µM
- TGI (Malme-3M): 3.41 µM
- CC50 (Malme-3M): 6.84 µM
- GI50 (MDA-MB-468): 1.84 µM
- TGI (MDA-MB-468): 4.47 µM
- CC50 (MDA-MB-468): 13 µM
- GI50 [17]: 1.72 µM
- LC50 (concentration killing 50% of cells) [17]: 6.29 µM
- TGI [17]: 3.29 µM
- GI50 [18]: 2.26 µM
- TGI [18]: 4.72 µM
- CC50 [18]: 9.84 µM

Structure (SMILES): CCCCCCCCCC(=O)Oc1ccc(/C(=C(/C)c2ccccc2)c2ccc(OCCN3CCCC3)cc2)cc1
- GI50 [1]: 8.75 µM
- LC50 (concentration giving 50% net cell kill) [1]: 34.1 µM
- TGI [1]: 17.3 µM
- IC50 (MCF7 [2]): < 1 µM
- TGI (M14): 16.5 µM
- CC50 (M14): 32.8 µM
- GI50 [3]: 6.95 µM
- TGI [3]: 14.1 µM
- CC50 [3]: 28.8 µM
- GI50 [4]: 8.03 µM
- TGI [4]: 16.8 µM
- CC50 [4]: 35.4 µM
- LC50 (A498): 29.4 µM
- TGI (A498): 13.5 µM
- GI50 (EKVX): 6.92 µM
- LC50 (EKVX): 26.6 µM
- TGI (EKVX): 13.6 µM
- GI50 [5]: 6.55 µM
- LC50 [5]: 27.9 µM
- TGI [5]: 13.5 µM
- GI50 [6]: 8.16 µM
- LC50 [6]: 36.3 µM
- TGI [6]: 17.2 µM
- GI50 (SK-MEL-2): 9.49 µM
- TGI (SK-MEL-2): 18.1 µM
- CC50 (SK-MEL-2): 34.4 µM
- GI50 [7]: 6.69 µM
- LC50 (concentration killing 50% of cells) [7]: 25.6 µM
- TGI [7]: 13.1 µM
- GI50 (SR): 9.08 µM
- TGI (SR): 19 µM
- CC50 (SR): 39.7 µM
- GI50 [8]: 7.36 µM
- TGI [8]: 14.8 µM
- CC50 [8]: 29.6 µM
- GI50 [9]: 8.87 µM
- TGI [9]: 19.5 µM
- CC50 [9]: 43.7 µM
- GI50 (U-251): 8.01 µM
- LC50 (50% lethal concentration) (U-251): 29.8 µM
- TGI (U-251): 15.4 µM
- GI50 [10]: 8.57 µM
- LC50 [10]: 28.5 µM
- TGI [10]: 15.6 µM
- GI50 (MCF7 [11]): < 5 µM
- TGI (MCF7 [11]): 10.3 µM
- CC50 (MCF7 [11]): 28 µM
- GI50 [12]: 9.04 µM
- TGI [12]: 17.7 µM
- CC50 [12]: 34.7 µM
- GI50 [13]: 9.55 µM
- TGI [13]: 32.2 µM
- CC50 [13]: > 50 µM
- GI50 (CCRF-CEM): 9.51 µM
- TGI (CCRF-CEM): 22.3 µM
- CC50 (CCRF-CEM): 50 µM
- GI50 (NCI-H522): 9.36 µM
- TGI (NCI-H522): 18.4 µM
- CC50 (NCI-H522): 36.3 µM
- GI50 (786-0): 8.77 µM
- TGI (786-0): 16.8 µM
- CC50 (786-0): 32.2 µM
- GI50 [14]: 9.23 µM
- LC50 [14]: 30.6 µM
- TGI [14]: 16.8 µM
- GI50 [15]: 8.22 µM
- TGI [15]: 16.8 µM
- CC50 [15]: 34.5 µM
- GI50 [16]: 6.77 µM
- LC50 [16]: 28.7 µM
- TGI [16]: 13.9 µM
- GI50 (NCI-H226): 9.42 µM
- LC50 (50% lethal concentration) (NCI-H226): 36.4 µM
- TGI (NCI-H226): 18.5 µM
- GI50 (Malme-3M): 7.76 µM
- TGI (Malme-3M): 15.7 µM
- CC50 (Malme-3M): 31.9 µM
- GI50 (MDA-MB-468): 7.26 µM
- TGI (MDA-MB-468): 14.7 µM
- CC50 (MDA-MB-468): 29.7 µM
- GI50 [17]: 8.02 µM
- LC50 (concentration killing 50% of cells) [17]: 27.2 µM
- TGI [17]: 14.8 µM
- GI50 [18]: 9.18 µM
- TGI [18]: 16.8 µM
- CC50 [18]: 30.9 µM

— ChEMBL document CHEMBL3774317, “Design and synthesis of novel tamoxifen analogues that avoid CYP2D6 metabolism” (Eur J Med Chem, 2016)
